# Experimental data taken from patent US20250230193A1, “CYCLIC COMPOUND HAVING SELECTIVE KRAS INHIBITORY EFFECT ON HRAS AND NRAS” (CHUGAI SEIYAKU KABUSHIKI KAISHA, priority 2022, published 2025).
# Legend:
# [1] = system: human lung cancer strain NCI-H441; assay: cells; details: NCI-H441, 96 h, read-out: NCI-H441 IC50 (nM)
# [2] = target: GDP-bound HRAS wild-type protein (Homo sapiens, UniProt P01112); assay: Binding to HRAS by surface plasmon resonance (SPR), Single Cycle Kinetics; details: SPR; KD ratio class
# [3] = target: GDP-bound NRAS wild-type protein (Homo sapiens, UniProt P01111); assay: Binding to NRAS by surface plasmon resonance (SPR), Single Cycle Kinetics; details: SPR; KD ratio class
# GDP-bound NRAS wild-type protein, sequence (P01111 whole entry): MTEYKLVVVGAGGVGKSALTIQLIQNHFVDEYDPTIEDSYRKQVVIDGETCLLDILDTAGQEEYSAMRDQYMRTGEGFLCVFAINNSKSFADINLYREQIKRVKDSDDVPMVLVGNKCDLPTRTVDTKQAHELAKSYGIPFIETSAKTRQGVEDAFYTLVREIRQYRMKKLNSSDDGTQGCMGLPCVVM
# GDP-bound HRAS wild-type protein, sequence (P01112 whole entry): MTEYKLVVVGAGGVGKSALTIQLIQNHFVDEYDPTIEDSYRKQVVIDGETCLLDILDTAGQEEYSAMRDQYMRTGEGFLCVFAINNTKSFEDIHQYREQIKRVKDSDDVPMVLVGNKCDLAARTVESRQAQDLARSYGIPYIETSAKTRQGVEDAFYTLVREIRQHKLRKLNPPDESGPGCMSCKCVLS
Compound,IC50 [1],HRAS/KRAS (ratio of KD value for GDP-bound HRAS wild-type protein to KD value for KRAS) [2],NRAS/KRAS (ratio of KD value for GDP-bound NRAS wild-type protein to KD value for KRAS) [3]
CCO[C@@H]1C[C@H]2C(=O)NC3(CCC3)C(=O)N(C)[C@@H](C(CC)CC)C(=O)N(C)[C@H](C(=O)N(C)C)CC(=O)N(C)[C@@H](COC)C(=O)N[C@@H]([C@@H](C)CC)C(=O)N(C)CC(=O)N(C)[C@H]3C/C=C\CCN(C3=O)[C@@H](Cc3ccc(C(F)(F)F)cc3)C(=O)N(C)CC(=O)N[C@@H](CCc3ccc4sccc4c3)C(=O)N2C1 [PP1229],144 nM,A (a compound having 10 or more and less than 20 is denoted as A),A (a compound having 10 or more and less than 20 is denoted as A)
CCO[C@@H]1C[C@H]2C(=O)NC3(CCC3)C(=O)N(C)[C@@H](C3CCCC3)C(=O)N(C)[C@H](C(=O)N3CCOCC3)CC(=O)N(C)[C@@H](CC)C(=O)N[C@@H]([C@@H](C)CC)C(=O)N(C)CC(=O)N(C)[C@H]3CC[C@@H](C)CN(C3=O)[C@@H](Cc3ccc(C(F)(F)F)cc3)C(=O)N(C)CC(=O)N[C@@H](CCc3cc(F)c(C(F)(F)F)c(F)c3)C(=O)N2C1 [PP1372],5 nM,B (a compound having 3 or more and less than 10 is denoted as B),B (a compound having 3 or more and less than 10 is denoted as B)
CCO[C@@H]1C[C@H]2C(=O)NC3(CC(C)(C)C3)C(=O)N(C)[C@@H](C3CCCC3)C(=O)N(C)[C@H](C(=O)N(C)C)CC(=O)N(C)[C@@H](CC3CCC3)C(=O)N[C@@H]([C@@H](C)CC)C(=O)N(C)CC(=O)N(C)[C@H]3C/C=C\CCN(C3=O)[C@@H](Cc3ccc(C(F)(F)F)cc3)C(=O)N(C)CC(=O)N[C@@H](CCc3ccc(C(F)(F)F)c(OC)c3)C(=O)N2C1 [PP1564],3 nM,A (a compound having 10 or more and less than 20 is denoted as A),A (a compound having 10 or more and less than 20 is denoted as A)
CCO[C@@H]1C[C@H]2C(=O)NC3(CCC3)C(=O)N(C)[C@@H](C3CCCC3)C(=O)N(C)[C@H](C(=O)N(C)CC)CC(=O)N(C)[C@@H](CC3CCCC3)C(=O)N[C@@H]([C@@H](C)CC)C(=O)N(C)CC(=O)N(C)[C@H]3C/C=C\CCN(C3=O)[C@@H](Cc3ccc(C(F)(F)F)cc3)C(=O)N(C)CC(=O)N[C@@H](CCc3ccc(C(F)(F)F)c(OC)c3)C(=O)N2C1 [PP1573],5.2 nM,A (a compound having 10 or more and less than 20 is denoted as A),A (a compound having 10 or more and less than 20 is denoted as A)
CCO[C@@H]1C[C@H]2C(=O)NC3(CCC3)C(=O)N(C)[C@@H](C(CC)CC)C(=O)N(C)[C@H](C(=O)N(C)C)CC(=O)N(C)[C@@H](CC(C)C)C(=O)N[C@@H]([C@@H](C)CC)C(=O)N(C)CC(=O)N(C)[C@H]3C/C=C\CCN(C3=O)[C@@H](Cc3ccc(C(F)(F)F)cc3)C(=O)N(C)CC(=O)N[C@@H](CCc3ccc(Cl)c(Cl)c3)C(=O)N2C1 [PP1217],17.8 nM,A (a compound having 10 or more and less than 20 is denoted as A),AA (a compound having 20 or more is denoted as AA)
CC[C@H](C)[C@@H]1NC(=O)[C@H](CC)N(C)C(=O)C[C@@H](C(=O)N2CCOCC2)N(C)C(=O)[C@H](C2CCCC2)N(C)C(=O)C2(CCCC2)NC(=O)[C@@H]2CCCN2C(=O)[C@H](CCc2cc(F)c(C(F)(F)F)c(F)c2)NC(=O)CN(C)C(=O)[C@H](Cc2ccc(C(F)(F)F)cc2)N2CC(C)[C@@H](C)C[C@@H](C2=O)N(C)C(=O)CN(C)C1=O (stereo partly drawn) [PP1350],20.1 nM,B (a compound having 3 or more and less than 10 is denoted as B),B (a compound having 3 or more and less than 10 is denoted as B)

# Continued by falling IC50 [1], values first:
IC50 [1],Compound,HRAS/KRAS (ratio of KD value for GDP-bound HRAS wild-type protein to KD value for KRAS) [2],NRAS/KRAS (ratio of KD value for GDP-bound NRAS wild-type protein to KD value for KRAS) [3]
111 nM,CCO[C@@H]1C[C@H]2C(=O)NC3(CCCC3)C(=O)N(C)[C@@H](C3CCCC3)C(=O)N(C)[C@H](C(=O)N(C)C)CC(=O)N(C)[C@@H](C)C(=O)N[C@@H]([C@@H](C)CC)C(=O)N(C)CC(=O)N(C)[C@H]3C/C=C\CCN(C3=O)[C@@H](CC3CCCCC3)C(=O)N(C)CC(=O)N[C@@H](CCc3cc(F)c(C(F)(F)F)c(F)c3)C(=O)N2C1 [PP1470],A (a compound having 10 or more and less than 20 is denoted as A),A (a compound having 10 or more and less than 20 is denoted as A)
48.9 nM,CCO[C@@H]1C[C@H]2C(=O)NC3(CCC3)C(=O)N(C)[C@@H](C3CCCC3)C(=O)N(C)[C@H](C)CC(=O)N(C)[C@@H](CC3CC3)C(=O)N[C@@H]([C@@H](C)CC)C(=O)N(C)CC(=O)N(C)[C@H]3C/C=C\CCN(C3=O)[C@@H](Cc3ccc(F)cc3)C(=O)N(C)CC(=O)N[C@@H](CCc3cc(F)c(C(F)(F)F)c(F)c3)C(=O)N2C1 [PP1490],B (a compound having 3 or more and less than 10 is denoted as B),B (a compound having 3 or more and less than 10 is denoted as B)
47.4 nM,CCO[C@@H]1C[C@H]2C(=O)NC3(CCC3)C(=O)N(C)[C@@H](C(CC)CC)C(=O)N(C)[C@H](C(=O)N3CCCC3)CC(=O)N(C)[C@@H](C)C(=O)N[C@@H]([C@@H](C)CC)C(=O)N(C)CC(=O)N(C)[C@H]3C/C=C\CCN(C3=O)[C@@H](CC3CCC(F)(F)CC3)C(=O)N(C)CC(=O)N[C@@H](CCc3cc(F)c(C(F)(F)F)c(F)c3)C(=O)N2C1 [PP1436],A (a compound having 10 or more and less than 20 is denoted as A),AA (a compound having 20 or more is denoted as AA)
42.6 nM,CCO[C@@H]1C[C@H]2C(=O)NC3(CCC3)C(=O)N(C)[C@@H](C3CCCC3)C(=O)N(C)[C@H](C(=O)N3CCOCC3)CC(=O)N(C)[C@@H](CC3CC3)C(=O)N[C@@H]([C@@H](C)CC)C(=O)N(C)CC(=O)N(C)[C@H]3C/C=C\CCN(C3=O)[C@@H](Cc3ccc(C(F)(F)F)cc3)C(=O)N(C)CC(=O)N[C@@H](CCc3cc(F)c(C(F)(F)F)c(F)c3)C(=O)N2C1 [PP1283],A (a compound having 10 or more and less than 20 is denoted as A),AA (a compound having 20 or more is denoted as AA)
41.2 nM,CCO[C@@H]1C[C@H]2C(=O)NC3(CCC3)C(=O)N(C)[C@@H](C(CC)CC)C(=O)N(C)[C@H](C(=O)N(C)C)CC(=O)N(C)[C@@H](CC3CCCC3)C(=O)N[C@@H]([C@@H](C)CC)C(=O)N(C)CC(=O)N(C)[C@H]3C/C=C\CCN(C3=O)[C@@H](CC3CCC(F)(F)CC3)C(=O)N(C)CC(=O)N[C@@H](CCc3cc(F)c(C(F)(F)F)c(F)c3)C(=O)N2C1 [PP1431],A (a compound having 10 or more and less than 20 is denoted as A),AA (a compound having 20 or more is denoted as AA)
18.7 nM,CCC[C@H]1C(=O)N[C@@H]([C@@H](C)CC)C(=O)N(C)CC(=O)N(C)[C@H]2C/C=C\CCN(C2=O)[C@@H](Cc2ccc(C(F)(F)F)cc2)C(=O)N(C)CC(=O)N[C@@H](CCc2ccc(Cl)c(Cl)c2)C(=O)N2C[C@H](OCC)C[C@H]2C(=O)NC2(CCC2)C(=O)N(C)[C@@H](C2CCCC2)C(=O)N(C)[C@H](C(=O)N(C)C)CC(=O)N1C [PP1250],A (a compound having 10 or more and less than 20 is denoted as A),AA (a compound having 20 or more is denoted as AA)
12.6 nM,CCO[C@@H]1C[C@H]2C(=O)NC3(CC(C)(C)C3)C(=O)N(C)[C@@H](C3CCCC3)C(=O)N3CCC[C@@H]3CC(=O)N(C)[C@@H](CC)C(=O)N[C@@H]([C@@H](C)CC)C(=O)N(C)CC(=O)N(C)[C@H]3C/C=C\CCN(C3=O)[C@@H](Cc3ccc(C(F)(F)F)cc3)C(=O)N(C)CC(=O)N[C@@H](CCc3cc(F)c(C(F)(F)F)c(F)c3)C(=O)N2C1 [PP1606],B (a compound having 3 or more and less than 10 is denoted as B),B (a compound having 3 or more and less than 10 is denoted as B)
2.7 nM,CCCC[C@H]1C(=O)N[C@@H]([C@@H](C)CC)C(=O)N(C)CC(=O)N(C)[C@H]2C/C=C\CCN(C2=O)[C@@H](Cc2ccc(C(F)(F)F)cc2)C(=O)N(C)CC(=O)N[C@@H](CCc2ccc(C(F)(F)F)c(OC)c2)C(=O)N2C[C@H](OCC)C[C@H]2C(=O)NC2(CC(C)(C)C2)C(=O)N(C)[C@@H](C2CCCC2)C(=O)N(C)[C@H](C(=O)N(C)C)CC(=O)N1C [PP1561],B (a compound having 3 or more and less than 10 is denoted as B),A (a compound having 10 or more and less than 20 is denoted as A)
1.8 nM,CCC[C@H]1C(=O)N[C@@H]([C@@H](C)CC)C(=O)N(C)CC(=O)N(C)[C@H]2C/C=C\CCN(C2=O)[C@@H](Cc2ccc(C(F)(F)F)cc2)C(=O)N(C)CC(=O)N[C@@H](CCc2ccc(C(F)(F)F)c(OC)c2)C(=O)N2C[C@H](OCC)C[C@H]2C(=O)NC2(CC(C)(C)C2)C(=O)N(C)[C@@H](C2CCCC2)C(=O)N(C)[C@H](C(=O)N(C)C)CC(=O)N1C [PP1560],B (a compound having 3 or more and less than 10 is denoted as B),A (a compound having 10 or more and less than 20 is denoted as A)
